Activity calls are given as the source filed them. How the calls were made is not given here.
System: VEEV TC-83 infected cells, virus titer reduction
Experiment: VEEV TC-83 virus titer reduction, cell-based secondary screen, inhibitor project set 3 (AID 624286)
Settings: at 5 µM; stronger effect = lower value

| Structure (SMILES) | log virus titer change |
| --- | --- |
| CCN1CCN(Cc2nc3ccc([N+](=O)[O-])cc3c(=O)n2-c2cccc(F)c2)CC1 | < -7.11 |
| O=c1c2cc([N+](=O)[O-])ccc2nc(CN2CCNCC2)n1-c1ccccc1F | < -7.76 |
| CN1CCN(Cc2nc3ccc([N+](=O)[O-])cc3c(=O)n2-c2ccccc2F)CC1 | < -7.76 |
| CCN1CCN(Cc2nc3ccc([N+](=O)[O-])cc3c(=O)n2-c2ccc(F)cc2)CC1 | -5.88 |
| O=c1c2cc([N+](=O)[O-])ccc2nc(CN2CCCCC2)n1-c1ccccc1F | -0.366 (inactive) |
| O=c1c2cc([N+](=O)[O-])ccc2nc(CN2CCNCC2)n1-c1ccccc1 | < -7.76 |
| CCN1CCN(Cc2nc3ccc(I)cc3c(=O)n2-c2ccccc2)CC1 | -0.33 (inactive) |
| CCN1CCN(Cc2nc3ccc([N+](=O)[O-])cc3c(=O)n2-c2ccccc2)CC1 | < -7.54 |
